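Cultured in 96-well plates, cells were exposed to test compound for 48 hours across five concentrations. GI50: concentration for 50% inhibition of growth. Definition used: TGI = concentration required for complete inhibition of growth.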
Columns and labels:
Assay in all cases: inhibition of tumour cell growth, NCI panel, 48 h
[1] = system: SK-MEL-28 melanoma
[2] = system: M14 melanoma
[3] = system: OVCAR-3 ovarian
[4] = system: MALME-3M melanoma
[5] = system: MCF7 breast
[6] = system: LOX IMVI melanoma
[7] = system: OVCAR-8 ovarian
[8] = system: SN12C renal
[9] = system: SNB-19 CNS
[10] = system: RPMI-8226 leukemia
[11] = system: HCT-116 colon
[12] = system: SF-295 CNS
[13] = system: EKVX NSCLC
[14] = system: DU-145 prostate
[15] = system: HOP-92 NSCLC
[16] = system: NCI-H23 lung
[17] = system: T-47D breast
[18] = system: MDA-MB-231 breast
[19] = system: SK-MEL-5 melanoma
[20] = system: HL-60(TB) leukemia
[21] = system: COLO 205 colon
[22] = system: HT29 colon
[23] = system: HCT-15 colon
[24] = system: HS 578T breast
[25] = system: UACC-257 melanoma
[26] = system: K-562 leukemia
[27] = system: A498 renal
[28] = system: PC-3 prostate
[29] = system: HCC-2998 colon
[30] = system: HOP-62 NSCLC
[31] = system: MDA-MB-435
[32] = system: UACC-62 melanoma
[33] = system: SK-OV-3 ovarian
[34] = system: NCI-H460 lung
[35] = system: SW-620 colon
[36] = system: SF-539 CNS
[37] = system: NCI/ADR-RES ovarian
[38] = system: NCI-H522 lung
[39] = system: RXF 393 renal
[40] = system: U251 CNS
[41] = system: IGROV1 ovarian
[42] = system: CAKI-1 renal
[43] = system: KM12 colon
[44] = system: SK-MEL-2 melanoma
[45] = system: BT-549 breast
[46] = system: NCI-H226 lung
[47] = system: A549 NSCLC
[48] = system: SF-268 CNS
[49] = system: 786-0 renal
[50] = system: TK-10 renal
[51] = system: UO-31 renal
[52] = system: CCRF-CEM leukemia
[53] = system: OVCAR-5 ovarian
[54] = system: ACHN renal

**Q.** With `CCOC(=O)c1cc2c(c3ccsc13)C1(C)CCC3c4ccc(OC)cc4CCC3C1C2` (stereo not drawn) as the compound, how does the GI50 [1] read?
**A.** > 100 µM

**Q.** And the TGI [1]?
**A.** > 100 µM

**Q.** What about the GI50 [2] of the same compound?
**A.** > 100 µM

**Q.** And the TGI [2]?
**A.** > 100 µM

**Q.** And the GI50 [3]?
**A.** > 100 µM

**Q.** What about the TGI [3] of the same compound?
**A.** > 100 µM

**Q.** And the GI50 [4]?
**A.** > 100 µM

**Q.** What about the TGI [4] of the same compound?
**A.** > 100 µM

**Q.** And the GI50 [5]?
**A.** > 100 µM

**Q.** What about the TGI [5] of the same compound?
**A.** > 100 µM

**Q.** And the GI50 [6]?
**A.** > 100 µM

**Q.** And the TGI [6]?
**A.** > 100 µM

**Q.** What about the GI50 [7] of the same compound?
**A.** > 100 µM

**Q.** And the TGI [7]?
**A.** > 100 µM

**Q.** What about the GI50 [8] of the same compound?
**A.** > 100 µM

**Q.** And the TGI [8]?
**A.** > 100 µM

**Q.** What about the GI50 [9] of the same compound?
**A.** > 100 µM

**Q.** And the TGI [9]?
**A.** > 100 µM

**Q.** What about the GI50 [10] of the same compound?
**A.** > 100 µM

**Q.** What about the TGI [10] of the same compound?
**A.** > 100 µM

**Q.** And the GI50 [11]?
**A.** > 100 µM

**Q.** What about the TGI [11] of the same compound?
**A.** > 100 µM

**Q.** And the GI50 [12]?
**A.** > 100 µM

**Q.** And the TGI [12]?
**A.** > 100 µM

**Q.** What about the GI50 [13] of the same compound?
**A.** > 100 µM

**Q.** And the TGI [13]?
**A.** > 100 µM

**Q.** What about the GI50 [14] of the same compound?
**A.** > 100 µM

**Q.** And the TGI [14]?
**A.** > 100 µM

**Q.** And the GI50 [15]?
**A.** > 100 µM

**Q.** And the TGI [15]?
**A.** > 100 µM

**Q.** And the GI50 [16]?
**A.** > 100 µM

**Q.** And the TGI [16]?
**A.** > 100 µM

**Q.** And the GI50 [17]?
**A.** > 100 µM

**Q.** What about the TGI [17] of the same compound?
**A.** > 100 µM

**Q.** And the GI50 [18]?
**A.** > 100 µM

**Q.** And the TGI [18]?
**A.** > 100 µM

**Q.** And the GI50 [19]?
**A.** > 100 µM

**Q.** What about the TGI [19] of the same compound?
**A.** > 100 µM

**Q.** And the GI50 [20]?
**A.** > 100 µM

**Q.** What about the TGI [20] of the same compound?
**A.** > 100 µM

**Q.** What about the GI50 [21] of the same compound?
**A.** > 100 µM

**Q.** What about the TGI [21] of the same compound?
**A.** > 100 µM

**Q.** And the GI50 [22]?
**A.** 60.3 µM

**Q.** What about the TGI [22] of the same compound?
**A.** > 100 µM

**Q.** And the GI50 [23]?
**A.** > 100 µM

**Q.** And the TGI [23]?
**A.** > 100 µM

**Q.** What about the GI50 [24] of the same compound?
**A.** > 100 µM

**Q.** What about the TGI [24] of the same compound?
**A.** > 100 µM

**Q.** And the GI50 [25]?
**A.** > 100 µM

**Q.** And the TGI [25]?
**A.** > 100 µM

**Q.** And the GI50 [26]?
**A.** > 100 µM

**Q.** And the TGI [26]?
**A.** > 100 µM

**Q.** What about the GI50 [27] of the same compound?
**A.** > 100 µM

**Q.** What about the TGI [27] of the same compound?
**A.** > 100 µM

**Q.** What about the GI50 [28] of the same compound?
**A.** > 100 µM

**Q.** And the TGI [28]?
**A.** > 100 µM

**Q.** And the GI50 [29]?
**A.** > 100 µM

**Q.** What about the TGI [29] of the same compound?
**A.** > 100 µM

**Q.** And the GI50 [30]?
**A.** > 100 µM

**Q.** And the TGI [30]?
**A.** > 100 µM

**Q.** And the GI50 [31]?
**A.** > 100 µM

**Q.** And the TGI [31]?
**A.** > 100 µM

**Q.** What about the GI50 [32] of the same compound?
**A.** > 100 µM

**Q.** And the TGI [32]?
**A.** > 100 µM

**Q.** And the GI50 [33]?
**A.** 36 µM

**Q.** And the TGI [33]?
**A.** > 100 µM

**Q.** And the GI50 [34]?
**A.** > 100 µM

**Q.** What about the TGI [34] of the same compound?
**A.** > 100 µM

**Q.** And the GI50 [35]?
**A.** > 100 µM

**Q.** What about the TGI [35] of the same compound?
**A.** > 100 µM

**Q.** And the GI50 [36]?
**A.** > 100 µM

**Q.** And the TGI [36]?
**A.** > 100 µM

**Q.** And the GI50 [37]?
**A.** > 100 µM

**Q.** What about the TGI [37] of the same compound?
**A.** > 100 µM

**Q.** And the GI50 [38]?
**A.** > 100 µM

**Q.** And the TGI [38]?
**A.** > 100 µM

**Q.** And the GI50 [39]?
**A.** > 100 µM

**Q.** What about the TGI [39] of the same compound?
**A.** > 100 µM

**Q.** And the GI50 [40]?
**A.** > 100 µM

**Q.** And the TGI [40]?
**A.** > 100 µM

**Q.** What about the GI50 [41] of the same compound?
**A.** > 100 µM

**Q.** And the TGI [41]?
**A.** > 100 µM

**Q.** And the GI50 [42]?
**A.** > 100 µM

**Q.** What about the TGI [42] of the same compound?
**A.** > 100 µM

**Q.** And the GI50 [43]?
**A.** > 100 µM

**Q.** And the TGI [43]?
**A.** > 100 µM

**Q.** What about the GI50 [44] of the same compound?
**A.** > 100 µM

**Q.** And the TGI [44]?
**A.** > 100 µM

**Q.** And the GI50 [45]?
**A.** > 100 µM

**Q.** And the TGI [45]?
**A.** > 100 µM

**Q.** And the GI50 [46]?
**A.** > 100 µM

**Q.** What about the TGI [46] of the same compound?
**A.** > 100 µM

**Q.** What about the GI50 [47] of the same compound?
**A.** > 100 µM

**Q.** And the TGI [47]?
**A.** > 100 µM

**Q.** And the GI50 [48]?
**A.** > 100 µM

**Q.** And the TGI [48]?
**A.** > 100 µM

**Q.** What about the GI50 [49] of the same compound?
**A.** > 100 µM

**Q.** What about the TGI [49] of the same compound?
**A.** > 100 µM

**Q.** And the GI50 [50]?
**A.** > 100 µM

**Q.** What about the TGI [50] of the same compound?
**A.** > 100 µM

**Q.** What about the GI50 [51] of the same compound?
**A.** > 100 µM

**Q.** And the TGI [51]?
**A.** > 100 µM

**Q.** What about the GI50 [52] of the same compound?
**A.** > 100 µM

**Q.** And the TGI [52]?
**A.** > 100 µM

**Q.** What about the GI50 [53] of the same compound?
**A.** > 100 µM

**Q.** What about the TGI [53] of the same compound?
**A.** > 100 µM

**Q.** And the GI50 [54]?
**A.** > 100 µM

**Q.** And the TGI [54]?
**A.** > 100 µM

From PubChem BioAssay (NCI)
